Patent US10729723B2, “Method for inducing cell reprogramming, and method for producing pluripotent cells” (NATIONAL UNIVERSITY CORPORATION KUMAMOTO UNIVERSITY, priority 2014, dated 2020)

How the values were obtained:
HDF cells [1] = assay: influence of endocytosis inhibitor on cell-cluster formation by Lactobacillus 70S ribosome fraction; type: cell-based, Human; settings: 70S ribosome fraction 0.5 μg/50 μl/well, HDF cells 20,000 cells, cultured 2 days
Experimental: (§1) In the presence of an endocytosis inhibitor shown in the following Table, the cell-cluster forming ability was examined using the Lactobacillus 70S ribosome fraction prepared in Example 6. The 70S ribosome fraction was placed into a 96-well plate (0.5 μg/50 μl/well), HDF cells (20,000 cells/100 μl) were added, and each inhibitor (50 μl) was added. The cells were cultured in a CO2 incubator for 2 days, and the number of the formed cell-clusters was measured. The inhibitor was used with the concentration shown in Table being the standard concentration (concentration “5” in FIG. 9). Accordingly, for example, in the case of CP, the concentration “5” is 10 μM, and the concentration “10” is 20 μM. In addition, the MTT assay (measurement of cell death by colorimetric method) was conducted.

HDF cells [2] = assay: MTT assay (measurement of cell death by colorimetric method); type: cell-based; settings: HDF cells with 70S ribosome fraction, 2 days
Experimental: as §1

`CN(C)CCCN1c2ccccc2Sc2ccc(Cl)cc21` [CP, Chlorpromazine] was tested, and the “number of the formed cell-clusters in the presence of inhibitor” value (“number … in the presence of inhibitor” for short) (HDF cells [1]) was “decreased”.

With `C[C@@H]1[C@H](O)[C@@H](C)/C=C/C=C/CC/C=C/C=C/C=C/C=C/C(O[C@H]2O[C@H](C)[C@@H](O)[C@H](N)[C@@H]2O)CC2O[C@](O)(CC(O)C(O)CCC(O)CC(O)CC(O)CC(=O)O[C@H]1C)CC(O)C2C(=O)O` (stereo partly shown) [NY, Nystatin] the “number … in the presence of inhibitor” value (HDF cells [1]) was “decreased” and the “toxicity of inhibitor, considered cause of decreased cell-cluster number (MTT assay, cell survival ratio)” value (HDF cells [2]) was “toxicity”.

In the case of Methyl-β-cyclodextrin [MC], the “number … in the presence of inhibitor” value (HDF cells [1]) is reported as “increased concentration-dependently”.
